From PubChem BioAssay (NCI)
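Method: 48-hour compound exposure of cells in 96-well plates, five concentrations, linear interpolation of endpoints. TGI marks complete inhibition of growth.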

Key:
Experiment in all cases: NCI-60 cell line screen, 48 h
[1] = system: 786-0 renal
[2] = system: A549 NSCLC
[3] = system: ACHN renal
[4] = system: BT-549 breast
[5] = system: CAKI-1 renal
[6] = system: CCRF-CEM leukemia
[7] = system: COLO 205 colon
[8] = system: EKVX NSCLC
[9] = system: HCC-2998 colon
[10] = system: HCT-116 colon
[11] = system: HCT-15 colon
[12] = system: HOP-62 NSCLC
[13] = system: HS 578T breast
[14] = system: HT29 colon
[15] = system: IGROV1 ovarian
[16] = system: K-562 leukemia
[17] = system: KM12 colon
[18] = system: LOX IMVI melanoma
[19] = system: M14 melanoma
[20] = system: MALME-3M melanoma
[21] = system: MDA-MB-231 breast
[22] = system: MDA-MB-435
[23] = system: MDA-N
[24] = system: MOLT-4 leukemia
[25] = system: NCI-H226 lung
[26] = system: NCI-H23 lung
[27] = system: NCI-H460 lung
[28] = system: NCI-H522 lung
[29] = system: NCI/ADR-RES ovarian
[30] = system: OVCAR-3 ovarian
[31] = system: OVCAR-4 ovarian
[32] = system: OVCAR-5 ovarian
[33] = system: OVCAR-8 ovarian
[34] = system: PC-3 prostate
[35] = system: RPMI-8226 leukemia
[36] = system: RXF 393 renal
[37] = system: SF-268 CNS
[38] = system: SF-295 CNS
[39] = system: SF-539 CNS
[40] = system: SK-MEL-2 melanoma
[41] = system: SK-MEL-28 melanoma
[42] = system: SK-MEL-5 melanoma
[43] = system: SK-OV-3 ovarian
[44] = system: SN12C renal
[45] = system: SNB-19 CNS
[46] = system: SNB-75 CNS
[47] = system: SR leukemia
[48] = system: SW-620 colon
[49] = system: TK-10 renal
[50] = system: U251 CNS
[51] = system: UACC-257 melanoma
[52] = system: UACC-62 melanoma
[53] = system: UO-31 renal
[54] = system: A498 renal
[55] = system: DU-145 prostate
[56] = system: HL-60(TB) leukemia
[57] = system: HOP-92 NSCLC
[58] = system: MCF7 breast
[59] = system: T-47D breast

With `NC(Cc1ccc(B(O)O)cc1)C(=O)NC(CO)CO` (stereo not drawn) the TGI [1] was over 100 µM, the TGI [2] was over 100 µM and the TGI [3] was over 100 µM. The TGI [4] was over 100 µM, the TGI [5] was over 100 µM and the TGI [6] was over 100 µM. The TGI [7] was over 100 µM, the TGI [8] was over 100 µM and the TGI [9] was over 100 µM. It also gave a TGI [10] of over 100 µM, a TGI [11] of over 100 µM and a TGI [12] of over 100 µM. The TGI [13] was over 100 µM, the TGI [14] was over 100 µM and the TGI [15] was over 100 µM. It also gave a TGI [16] of over 100 µM, a TGI [17] of over 100 µM and a TGI [18] of over 100 µM. The TGI [19] was over 100 µM, the TGI [20] was over 100 µM and the TGI [21] was over 100 µM. It also gave a TGI [22] of over 100 µM, a TGI [23] of over 100 µM and a TGI [24] of over 100 µM. For the same molecule, the TGI [25] was over 100 µM, the TGI [26] was over 100 µM and the TGI [27] was over 100 µM. The TGI [28] was over 100 µM, the TGI [29] was over 100 µM and the TGI [30] was over 100 µM. The TGI [31] was over 100 µM, the TGI [32] was over 100 µM and the TGI [33] was over 100 µM. For the same molecule, the TGI [34] was over 100 µM, the TGI [35] was over 100 µM and the TGI [36] was over 100 µM. It also gave a TGI [37] of over 100 µM, a TGI [38] of over 100 µM and a TGI [39] of over 100 µM. The TGI [40] was over 100 µM, the TGI [41] was over 100 µM and the TGI [42] was over 100 µM. It also gave a TGI [43] of over 100 µM, a TGI [44] of over 100 µM and a TGI [45] of over 100 µM. It also gave a TGI [46] of over 100 µM, a TGI [47] of over 100 µM and a TGI [48] of over 100 µM. For the same molecule, the TGI [49] was over 100 µM, the TGI [50] was over 100 µM and the TGI [51] was over 100 µM. For the same molecule, the TGI [52] was over 100 µM and the TGI [53] was over 100 µM.
Work on `O=C1c2ccccc2C(=O)c2c(NCCCN3CCOCC3)ccc(NCCCN3CCOCC3)c21` yielded a TGI [1] of 16.7 µM, a TGI [54] of 25.2 µM and a TGI [2] of 16.2 µM. For the same molecule, the TGI [3] was 19.5 µM, the TGI [4] was 21.6 µM and the TGI [5] was 32 µM. The TGI [6] was over 100 µM, the TGI [55] was 52.6 µM and the TGI [8] was 46.6 µM. The TGI [9] was 27 µM, the TGI [10] was 10.4 µM and the TGI [11] was over 100 µM. For the same molecule, the TGI [56] was over 100 µM, the TGI [12] was 13.1 µM and the TGI [57] was 15.9 µM. The TGI [13] was 28.5 µM, the TGI [14] was 12.7 µM and the TGI [15] was 29.4 µM. The TGI [16] was over 100 µM, the TGI [17] was 20.5 µM and the TGI [18] was 3.61 µM. It also gave a TGI [19] of 10.1 µM, a TGI [20] of 27.7 µM and a TGI [58] of 24.4 µM. It also gave a TGI [21] of 13.8 µM, a TGI [23] of 13.6 µM and a TGI [24] of 19.8 µM. It also gave a TGI [25] of 31.5 µM, a TGI [26] of 17.6 µM and a TGI [27] of 4.61 µM. It also gave a TGI [28] of 2.35 µM, a TGI [30] of 40.3 µM and a TGI [31] of over 100 µM. The TGI [32] was 38.5 µM, the TGI [33] was 14.1 µM and the TGI [34] was 12.9 µM. It also gave a TGI [35] of 42.8 µM, a TGI [36] of 27.1 µM and a TGI [37] of 20.9 µM. For the same molecule, the TGI [38] was 11.4 µM, the TGI [39] was 4.03 µM and the TGI [40] was 25.5 µM. The TGI [41] was 19.8 µM, the TGI [42] was 6.79 µM and the TGI [44] was 17.2 µM. It also gave a TGI [45] of 41 µM, a TGI [46] of 10.7 µM and a TGI [47] of over 100 µM. For the same molecule, the TGI [48] was 28.1 µM, the TGI [59] was 83.9 µM and the TGI [49] was 39.1 µM. It also gave a TGI [50] of 19 µM, a TGI [51] of 9.91 µM and a TGI [52] of 6.05 µM. It also gave a TGI [53] of 17.4 µM.
